Measured values from PubChem BioAssay (NCI).
Values joined by “and” are separate entries in the source; they are usually repeats but may differ in a detail not shown here. Equal entries are not always repeated.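 Cells were grown in 96-well plates and exposed to each compound for 48 hours at five concentrations; endpoints were interpolated linearly between bracketing concentrations, or set to the highest concentration if not reached. GI50 is the concentration that inhibits growth by half. TGI denotes the concentration required for complete inhibition of growth.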

What was measured:
Assay in all cases: NCI-60 cell line screen, 48 h
A498 renal = system: A498 renal
CAKI-1 renal = system: CAKI-1 renal
HCT-116 colon = system: HCT-116 colon
HS 578T breast = system: HS 578T breast
IGROV1 ovarian = system: IGROV1 ovarian
NCI-H522 lung = system: NCI-H522 lung
SF-268 CNS = system: SF-268 CNS
SK-MEL-28 melanoma = system: SK-MEL-28 melanoma
TK-10 renal = system: TK-10 renal
U251 CNS = system: U251 CNS

SMILES	TGI (A498 renal)	TGI (CAKI-1 renal)	TGI (HCT-116 colon)	TGI (HS 578T breast)	TGI (IGROV1 ovarian)	TGI (NCI-H522 lung)	TGI (SF-268 CNS)	TGI (SK-MEL-28 melanoma)	TGI (TK-10 renal)	TGI (U251 CNS)	GI50 (A498 renal)	GI50 (CAKI-1 renal)	GI50 (HCT-116 colon)	GI50 (HS 578T breast)	GI50 (IGROV1 ovarian)	GI50 (NCI-H522 lung)	GI50 (SF-268 CNS)	GI50 (SK-MEL-28 melanoma)	GI50 (TK-10 renal)	GI50 (U251 CNS)
CCOC(=O)CCc1c(C)c2ccc(O)cc2oc1=O	> 100 µM	> 100 µM	> 100 µM	> 100 µM	> 100 µM	> 100 µM	> 100 µM	> 100 µM	> 100 µM	> 100 µM										
Cc1cc(Nc2ncc(Cl)c(Nc3ccccc3S(=O)(=O)C(C)C)n2)c(OC(C)C)cc1C1CCNCC1	6.83 µM	5.29 µM	2.62 µM	5.25 µM and 5.34 µM and 4.48 µM	3.37 µM and 2.36 µM	3.06 µM	3.38 µM	2.47 µM	2.76 µM and 2.61 µM	2.72 µM	1.88 µM	1.87 µM	1.24 µM	1.66 µM and 1.94 µM and 1.61 µM	1.56 µM and 1.12 µM	1.52 µM	1.61 µM	1.22 µM	1.42 µM and 1.33 µM	1.39 µM
CC1(C)CC2=NOS3=C2C(=NO3)C1c1ccccn1 (centres undefined)	> 100 µM	> 100 µM	> 100 µM	> 100 µM	84.5 µM	90.2 µM	> 100 µM	> 100 µM	> 100 µM	> 100 µM										
CNC(=O)c1ccc(Nc2nc(OC3CCCC3)c3c(-c4ccc5nc(C)oc5c4)c[nH]c3n2)c(OC)c1	> 100 µM	> 100 µM	> 60.5 µM	> 100 µM	> 100 µM	> 100 µM	> 100 µM	> 100 µM	> 100 µM	> 100 µM	0.547 µM	0.448 µM	0.409 µM	31.5 µM	0.448 µM	1.67 µM	> 47.2 µM	41.4 µM	> 68.7 µM	15.3 µM
Nc1ccn(C2OC(COP(=O)(O)O)C(O)C2O)c(=O)n1 (centres undefined)	> 100 µM	> 100 µM	> 100 µM	> 100 µM	> 100 µM	> 100 µM	> 100 µM	> 100 µM	> 100 µM	> 100 µM										
Cc1c(N(C(=O)c2cc(-c3cc(Cl)ccc3C(=O)N3Cc4ccccc4C[C@H]3CN3CCOCC3)n(C)c2C)c2ccc(O)cc2)cc(C#N)n1C	61.6 µM	> 100 µM	> 100 µM	75.3 µM	> 100 µM	> 100 µM	> 100 µM	> 100 µM	78 µM	> 100 µM	23.2 µM	6.35 µM	7.66 µM	19 µM	23.8 µM	20.4 µM	20.5 µM	31.3 µM	12.8 µM	18.9 µM
OCC1OC(O)C(N=Cc2ccc3c(c2)OCO3)C(O)C1O (centres undefined)	> 100 µM	> 100 µM	> 100 µM	> 100 µM	> 100 µM	> 100 µM	> 100 µM	> 100 µM	> 100 µM	> 100 µM										
CC1=Cc2cc3[n-]c(cc4nc(cc5[n-]c(cc1n2)c(C)c5CCC(=O)O)C(CCC(=O)O)=C4C)cc3C.[Cu+2]	> 1 µM and 36.5 µM	> 68.2 µM	> 100 µM	> 100 µM	> 1 µM and 35.9 µM	30.4 µM	36.1 µM and > 1 µM	> 1 µM and 12.9 µM	> 1 µM and 38.3 µM	> 1 µM and 23.2 µM	> 1 µM and 16.2 µM	> 1 µM and 23.2 µM	> 1 µM and 33.4 µM	38.7 µM	> 1 µM and 12.5 µM	8.84 µM	10.8 µM and > 1 µM	> 1 µM and 4.4 µM	> 1 µM and 17.6 µM	> 1 µM and 9.85 µM
CCOC(=O)c1ccc2[nH]c(Cc3[nH]c4ccc(C(=O)OCC)cc4c3C)c(C)c2c1	23.1 µM	22.9 µM	8.58 µM	23.1 µM	17 µM	19.2 µM	15.4 µM	22.8 µM	17.4 µM	7.97 µM	5.45 µM	1.55 µM	0.556 µM	3.29 µM	2.35 µM	3.27 µM	1.41 µM	5.26 µM	4.28 µM	0.473 µM
CC(=O)O[C@H]1C(=O)[C@@]2(C)[C@H]([C@H](OC(=O)c3ccccc3)[C@]3(O)C[C@H](OC(=O)[C@H](OC(=O)CCC(=O)OC4CCC(S/N=C(N)/N=C(\N)N(C)C)CC4)[C@@H](NC(=O)c4ccccc4)c4ccccc4)C(C)=C1C3(C)C)[C@]1(OC(C)=O)CO[C@@H]1C[C@@H]2O (some centres undefined)	> 50 µM	> 50 µM	> 50 µM		> 50 µM	0.0373 µM	> 50 µM	> 50 µM	1.65 µM	> 50 µM	0.0148 µM	1.27 µM	< 0.005 µM	0.01 µM	0.113 µM	0.00553 µM	0.0212 µM	8.57 µM	0.0205 µM	0.00815 µM
